# Test system: pregnant mice
# Assay: not given
# Conditions: 2 and 20 µg/kg/day dosed orally to pregnant mice; cited from earlier work
SMILES,efficiency of sperm production in male offspring,prostate weights in male offspring
"CC(C)(c1ccc(O)cc1)c1ccc(O)cc1 [BPA, 2,2-bis(4-hydroxyphenyl) propane]",decrease in the efficiency of sperm production,increase in prostate weights

# Target: T1, estrogen receptor (Rattus norvegicus, UniProt P06211)
# T1 construct: from tissue; host or cells: uterus of matured female rat, homogenate supernatant (105,000 x G)
# T1 sequence (P06211 1-600): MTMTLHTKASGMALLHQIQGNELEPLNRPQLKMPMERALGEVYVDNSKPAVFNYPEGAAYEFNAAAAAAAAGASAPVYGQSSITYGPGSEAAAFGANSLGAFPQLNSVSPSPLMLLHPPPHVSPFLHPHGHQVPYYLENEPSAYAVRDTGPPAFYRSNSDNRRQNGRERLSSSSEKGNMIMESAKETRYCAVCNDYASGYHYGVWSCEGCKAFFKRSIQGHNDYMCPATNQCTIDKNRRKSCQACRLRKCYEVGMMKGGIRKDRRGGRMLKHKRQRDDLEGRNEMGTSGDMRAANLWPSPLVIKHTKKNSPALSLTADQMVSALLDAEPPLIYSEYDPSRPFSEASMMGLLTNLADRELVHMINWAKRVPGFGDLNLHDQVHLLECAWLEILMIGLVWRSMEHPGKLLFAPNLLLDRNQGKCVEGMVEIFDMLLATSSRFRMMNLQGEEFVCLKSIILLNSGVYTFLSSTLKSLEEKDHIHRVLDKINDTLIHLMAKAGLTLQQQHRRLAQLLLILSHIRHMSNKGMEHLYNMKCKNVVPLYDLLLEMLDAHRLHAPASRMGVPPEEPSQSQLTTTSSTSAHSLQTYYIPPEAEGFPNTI
# Assay: estrogen receptor affinity by exchange curve method ([3H]-estradiol displacement, membrane specimen from rat uterus)
# Format: binding
# Conditions: IC50, evaluated sample itself (bisphenols, phenols); concentration necessary to exchange 50% of estrogen bound receptor
# From the text: The smaller the numeral value, the higher is affinity between a chemical substance and estrogen receptor, i.e., the higher is so-called endocrine disruptor. […]
# Appendix J and "Medication receptor" P33-34, edited by Kazunari Takayanagi, Nanzando in Japan.
# Firstly, a matured female rat was butchered and then its uterus was taken out. Then, fatty portions adhered to tissue portion of the uterus were removed and the uterus removed fatty portions was weighed and then placed in ice. The tissue was sliced so as to form a corner of 1 to 2 mm and. The sliced tissue was put in a Polytron homogenizer cooled in advance in ice and ice cooled TEDG buffer solution (10 mM tris·HCl((pH 7.6), 1.5 mM EDTA, 1 mM DTT and 10 % Glycerol) of 1.0 ml per 50 mg of tissue was added therein and homogenized for 5 seconds. The homogenate was put in a centrifugal tube cooled in advance and centrifuged for 60 minutes at 105,000×G(gravitational unit), whereby a supernatant liquid was obtained as a membrane specimen containing estrogen receptor.
# Each the reaction solution thus prepared was vacuum dried and then placed in ice.
# 1 ml of the above-prepared supernatant liquid of homoginate containing estrogen receptor was added to each tube and softly stirred and then each tube was capped to incubate at 4 °C for 20 hours. Each mixed solution was poured on a filter attached a glass filter paper and aspiration filtered and then the glass filter paper was rinsed with an ice cooled rinsing buffer solution (50 mM Tris·HCl (pH7.6)). Each the glass filter paper was dried and then each radioactivity was measured with a liquid scintillation counter.
row,SMILES,IC50
1,"Cc1cc(C2(c3ccc(O)c(C)c3)c3ccccc3-c3ccccc32)ccc1O [BCFL, 9,9-bis(3-methyl-4-hydroxyphenyl) fluorene]",> 264 µM
2,"Oc1ccc(C(c2ccccc2)(c2ccccc2)c2ccc(O)cc2)cc1 [BPBP, bis(4-hydroxyphenyl)diphenyl methane]",6.53 µM
3,"CC(C)(c1ccc(O)cc1)c1cccc(C(C)(C)c2ccc(O)cc2)c1 [BPM, 4,4'-[1,3-phenylenebis(1-methylethylidene)] bisphenol]",< 0.289 µM
4,"Oc1ccc(C2(c3ccc(O)cc3)CCCCC2)cc1 [BPZ, 1,1-bis(4-hydroxyphenyl) cyclohexane]",< 0.373 µM
5,"CCCCCCCCCc1ccc(O)cc1 [NP, 4-nonylphenol]",4.08 µM
6,"C=C(CC(C)(C)c1ccc(O)cc1)c1ccc(O)cc1 [PIPLD, 4-methyl-2,4-bis(4-hydroxyphenyl)-1-pentene]",< 0.373 µM
7,"CC1CC(C)(C)CC(c2ccc(O)cc2)(c2ccc(O)cc2)C1 (centres unmarked) [TMBPZ, 3,3,5-trimethyl-1,1-bis(4-hydroxyphenyl)cyclohexane]",< 0.322 µM
8,CC(C)(C)c1ccc(O)cc1 [p-t-butyl phenol],173 µM

# Same assay, conditions: evaluated sample itself (bisphenols, phenols); concentration necessary to exchange 50% of estrogen bound receptor; read-out: IC50 (converted)
row,IC50,SMILES
1,< 0.297 µM,"Oc1ccc(C(c2ccc(O)cc2)(C(F)(F)F)C(F)(F)F)cc1 [BPAF, 2,2-bis(4-hydroxyphenyl) hexafluoropropane]"
2,1.72 µM,"CC(c1ccccc1)(c1ccc(O)cc1)c1ccc(O)cc1 [BPAP, 1,1-bis(4-hydroxyphenyl)-1-phenylethane]"
3,6.99 µM,"Oc1ccc(Cc2ccc(O)cc2)cc1 [BPF, bis(4-hydroxyphenyl)methane]"
4,< 8.85 µM,"Oc1ccc(C2(c3ccc(O)cc3)c3ccccc3-c3ccccc32)cc1 [BPFL, 9,9-bis(4-hydroxyphenyl) fluorene]"
5,< 4.18 µM,"Cc1cc(C2(c3cc(C)c(O)c(C)c3)c3ccccc3-c3ccccc32)cc(C)c1O [BXFL, 9,9-bis(4-hydroxy-3,5-dimethylphenyl) fluorene]"
6,2.92 µM,"CC1(C)CC2(CC(C)(C)c3ccc(O)cc32)c2cc(O)ccc21 [SPI, 6,6'-dihydroxy-3,3,3',3'-tetramethyl-1, 1'-spiro biindan]"
7,< 0.458 µM,"Oc1ccc(Sc2ccc(O)cc2)cc1 [TDP, bis(4-hydroxyphenyl) sulfide]"

row,SMILES,IC50
1,"CC(C)(c1ccc(O)cc1)c1ccc(O)cc1 [BPA, 2,2-bis(4-hydroxyphenyl) propane]",32 µM

# Test system: not given
# Assay: not given
# Conditions: stipulated by the U. S. Environmental Protection Agency and the Japanese Ministry of Health and Welfare; cited from earlier work
row,SMILES,acceptabel daily intake
1,"CC(C)(c1ccc(O)cc1)c1ccc(O)cc1 [BPA, 2,2-bis(4-hydroxyphenyl) propane]",50 µg/kg/day

# Test system: rat
# Assay: not given
# Conditions: cited from earlier work
row,SMILES,dosage by which the action like the female hormone was developed
1,"CC(C)(c1ccc(O)cc1)c1ccc(O)cc1 [BPA, 2,2-bis(4-hydroxyphenyl) propane]",800 mg/kg/day

# Source: patent EP1097956A1, “Low endocrine disruptor polycarbonate resin” (Mitsubishi Gas Chemical Company, Inc., priority 1999, dated 2001)
